The values below come from US10918648B2, “Estrogen receptor modulator combinations” (The Regents of the University of California, priority 2016, dated 2021).

One experiment deals with T1, estrogen receptor (Homo sapiens, UniProt P03372).
T1 construct: endogenous in cells; host or cells: MCF-7 parental (MCF-7/CON) human breast cancer cells
T1 sequence (P03372 1-595): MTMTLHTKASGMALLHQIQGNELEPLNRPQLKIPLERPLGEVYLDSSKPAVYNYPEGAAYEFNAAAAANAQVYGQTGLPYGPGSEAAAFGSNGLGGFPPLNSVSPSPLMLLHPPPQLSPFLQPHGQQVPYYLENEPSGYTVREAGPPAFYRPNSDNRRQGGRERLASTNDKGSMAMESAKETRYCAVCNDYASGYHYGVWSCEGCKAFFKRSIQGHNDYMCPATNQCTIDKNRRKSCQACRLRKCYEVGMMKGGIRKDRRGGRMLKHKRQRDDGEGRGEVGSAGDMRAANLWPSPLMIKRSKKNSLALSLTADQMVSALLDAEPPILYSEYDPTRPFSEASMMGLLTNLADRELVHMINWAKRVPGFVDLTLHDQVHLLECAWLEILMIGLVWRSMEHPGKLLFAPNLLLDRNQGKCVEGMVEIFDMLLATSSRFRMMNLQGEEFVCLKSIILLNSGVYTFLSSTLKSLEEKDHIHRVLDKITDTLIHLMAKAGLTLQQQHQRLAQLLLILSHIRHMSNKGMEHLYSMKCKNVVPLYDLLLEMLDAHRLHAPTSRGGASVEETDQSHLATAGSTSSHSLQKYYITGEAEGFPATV
As to the kind of experiment: Specific [3H]estradiol-17β binding by MCF-7 parental cells. The note with it: 2 nM [3H]estradiol-17β, compounds at 10 μM, FIG. 5A. The method, then: Specific estradiol binding: Specific estradiol-17β (E2) binding was assessed in MCF-7 parental breast cancer cells as before (14-16). […] MCF-7 cells were incubated with 2 nM [^3H]estradiol-17β and antiestrogens (all at 10 μM concentration; numbers Si to S15), with ICI 182,780 (ICI; fulvestrant) used as a control (n=3). Compounds S1-S14 are test compounds different from the exemplified compounds described herein.

A further experiment relates to H1975 NSCLC cells. Description: NSCLC cell proliferation in vitro (MTS assay). It counts as cell-based, human. The note with it: 72 hours. The method, then: (§1) Cell culture: Human breast and non-small cell lung cancer cells (MCF7, ZR75-1, MDAMB231, A549, H23, H1975, […]) were from ATCC. MCF7-HER2 were a kind gift of Dr. Dennis Slamon (23). Cell lines were routinely maintained in RPMI 1640 or DMEM medium with 10% fetal bovine serum (FBS) (Sigma-Aldrich) and 1% Antibiotic-Antimycotic solution 100× (Mediatech, Herndon, Va.). When indicated, for estrogen-free conditions, media was changed 48 h before experiments to phenol-red free RPMI 1640/DMEM with 1% dextran-coated, charcoal-treated (DCC)-FBS (24,25). Otherwise experiments were performed in phenol-red free RPMI 1640/DMEM medium with 5% DCC-FBS.
(§2) Cell proliferation assays: breast and lung tumor cells (between […]) were plated in 96 well plates using their respective medium with 10% FBS. For experiments using estradiol-17β, cells were rinsed with PBS and incubated with phenol redfree medium with 1% DCC-FBS for 48 hours as described before (24,25). Cells were then treated with different concentrations of SERDs ranging between 0.0001-100 μM. […] Cell counts and viability tests (Trypan blue) were done every 24 hr for 3 days. After 72 hr, proliferation was assessed with the MTS Assay CELLTITER 96® Aqueous Cell Proliferation Assay (Promega) or the Cell Proliferation ELISA, BrdU colorimetric assay (Roche). For the MTS, the absorbance of the formazan product was measured at 490 nanometer using the iMARK microplate reader from BIORAD. The BrdU ELISA assay is based on detection of BrdU incorporated into the genomic DNA of proliferating cells and an anti-BrdU antibody, the reaction product was quantified by measuring the absorbance at 370 nanometers using iMARK microplate reader from BIORAD. Cell numbers were also assessed initially by cell counts to confirm MTS/BrdU data. Experiments were done at least three times to confirm data.

In another experiment the test system is H2122 NSCLC cells. As to the kind of experiment: NSCLC cell proliferation in vitro (MTS assay). Format: cell-based, human. The note with it: 72 hours. The procedure:
as §1, §2

The next experiment deals with cyclin D1. As to the kind of experiment: Cyclin D1 expression, Western immunoblot in MCF-7 cells. The note with it: 24 hrs, 10% FBS, 1 μM and 10 μM, FIG. 7B. Format: cell-based, human. The procedure:
FIG. 7B. […] Western immunoblot of cyclin D1 after treating MCF-7 cells 24 hrs with 10% FBS and 1 μM and 10 μM doses of JD105, JD128 and JD140. Refer to FIG. S4 methods and previous reports (20).
Next, SERD compounds developed in our laboratory were tested for a capability to suppress the expression of cyclin D1 in ERα-positive human breast cancer cells MCF-7 which were used to validate the activity of other hormonal agents previously (see 20) (FIG. 7B).
Gel electrophoresis and immunoblotting: Breast and lung tumor cells were treated in phenol-red free RPMI1640/DMEM with 5% DCC-FBS (26). After selected treatments cells were homogenized in the presence of protease inhibitors using RIPA buffer (Thermo Scientific). All procedures were performed in ice, lysates were centrifuged and protein concentration quantified in the supernatants using a Thermo Scientific® BCA protein assay kit. Approximately 20-60 μg of total protein were heated in the presence of Laemmli sample buffer (Biorad) to 100° C. for 10 min and loaded it on a gradient TGX gel 4-15% (Biorad). Gels were transferred to PVDF membranes for immunoblotting. Membranes were blocked either with 5% milk in Tris Buffer Saline with 0.1% Tween 20 or protein-free blocking solution (Thermo Scientific). […]

The mark [1] stands for this setting: Homo sapiens, NCI-H1975, SERD alone, estrogen-depleted phenol red-free medium with 5% DCC-FBS, read-out: IC50 for inhibition of NSCLC cell proliferation, H1975.
Where [2] appears, read: in the presence of 1 μM palbociclib, 5% DCC-FBS, read-out: IC50 of SERD for inhibition of NSCLC cell proliferation, H1975.
Setting [3] is: Homo sapiens, NCI-H2122, SERD alone, estrogen-depleted phenol red-free medium with 5% DCC-FBS, read-out: IC50 for inhibition of NSCLC cell proliferation, H2122.
Setting [4] is: in the presence of 1 μM abemaciclib, 5% DCC-FBS, read-out: IC50 of SERD for inhibition of NSCLC cell proliferation, H2122.
The mark [5] stands for this setting: in the presence of 1 μM palbociclib, 5% DCC-FBS, read-out: IC50 of SERD for inhibition of NSCLC cell proliferation, H2122.

Read-outs that look alike come from different tables or passages of the source.

On to `C[C@]12C[C@H](Oc3ccc(N)cc3)[C@@H]3c4ccc(O)cc4CC[C@H]3[C@@H]1CC[C@@H]2O` [JD105, (8S,9S,11S,13S,14S,17S)-11-(4-aminophenoxy)-13-methyl-7,8,9,11,12,13,14,15,16,17-decahydro-6H-cyclopenta[a]phenanthrene-3,17-diol], for which the “specific binding of [3H]estradiol-17β” value at estrogen receptor is listed as “suppressed”; at estrogen receptor (listed as S15), “suppressed effectively”. Moreover, the IC50 in the experiment with H1975 NSCLC cells (setting [1]) was determined as 4500 nM; with H1975 NSCLC cells (in the presence of 1 μM abemaciclib, 5% DCC-FBS, read-out: IC50 of SERD for inhibition of NSCLC cell proliferation, H1975), 1060 nM; with H1975 NSCLC cells (setting [2]), 4780 nM; in the experiment with H2122 NSCLC cells (setting [3]) it was 3830 nM; with H2122 NSCLC cells (setting [4]) it was 1480 nM; in the experiment on H2122 NSCLC cells (setting [5]) it was 4200 nM.

Turning to `C[C@]12C[C@H](Oc3ccc(N)c(C(F)(F)F)c3)[C@@H]3c4ccc(O)cc4CC[C@H]3[C@@H]1CC[C@@H]2O` [JD128, (8S,9S,11S,13S,14S,17S)-11-(4-Amino-3-(trifluoromethyl)phenoxy)-13-methyl-7,8,9,11,12,13,14,15,16,17-decahydro-6H-cyclopenta[a]phenanthrene-3,17-diol], the IC50 with H1975 NSCLC cells (setting [2]) amounted to 12400 nM; in the experiment with H2122 NSCLC cells (setting [3]) it was 1310 nM; in the experiment on H2122 NSCLC cells (setting [4]), 230 nM; in the experiment with H2122 NSCLC cells (setting [5]) it was 960 nM. Besides, the “cyclin D1 expression” value in the experiment on cyclin D1 is on record as “down-regulates cyclin D1”.

Regarding `C[C@]12C[C@H](Oc3ccc(NC(=O)CCCCN4CCCCC4)c(F)c3)[C@@H]3c4ccc(O)cc4CC[C@H]3[C@@H]1CC[C@@H]2O` [JD140, N-(4-(((8S,9S,11S,13S,14S,17S)-3,17-Dihydroxy-13-methyl-7,8,9,11,12,13,14,15,16,17-deca-hydro-6H-cyclopenta[a]phenanthren-11-yl)oxy)-2-fluorophenyl)-5-(piperidin-1-yl)pentan-amide], the IC50 turned out to be 1860 nM with H1975 NSCLC cells (setting [1]); 17100 nM with H1975 NSCLC cells (setting [2]); 1140 nM in the experiment on H2122 NSCLC cells (setting [3]); 30 nM with H2122 NSCLC cells (setting [4]); 1110 nM with H2122 NSCLC cells (setting [5]).
